Like-named read-outs stand apart in the source and are kept apart here. Ends that are not written are not given here. Peptide text beside a SMILES is read from it. * marks the point of attachment. Cbz = O=C(OCc1ccccc1)*
Columns and labels:
[1] = Intracellular stability of optimal epitopes, DC and Mø extracts; assay type: in vitro ADME, Human; details: 37°C
Method: One nmol of highly purified peptide was degraded in 15μg of whole cell extracts at 37°C in degradation buffer at pH7.4 or pH4.0 [37]. Aliquots were taken at 0, 10, 30, and 60 minutes, and the reaction was stopped with 2.5μL of 100% TFA. The remaining peptide at each time point was quantified by reversed-phase HPLC (RP-HPLC; Waters). 100% represents the amount of peptide detected at time point 0 calculated as the area under the peptide peak. A stability rate of each peptide was calculated by a nonlinear regression (one-phase exponential decay) of the degradation profile obtained over a 60-minute incubation [35, 44]. Peptides incubated in buffer without cell extracts were used as controls.

[2] = Intracellular stability of optimal epitopes, immature DC extracts; assay type: in vitro ADME, Human; details: RP-HPLC; for stability rate at pH4.0 relative to pH7.4: immature DC extract, pH4.0, 37°C, 60-minute incubation, three independent experiments; for half-life: human, cells or culture medium, 1nmol peptide, 15μg immature DC whole cell extract, aliquots 0, 10, 30, 60 minutes, one-phase exponential decay
Method: The proteolytic activities of cathepsin S (cell, 50μM; extracts, 10μM Z-VVR-AMC), omni cathepsins (cell, 50μM; extracts, 50μM Z-FR-AMC), cathepsin D&E (extracts, 10μM Mca-[…]-Dnp, Enzo Life Sciences), and cathepsin B (extracts, 50μM Z-RR-AMC, Bachem) were measured by cleavage of peptide-specific fluorogenic substrates. […] For cell extracts, equivalent amounts as determined by total protein concentration were used in reaction buffer (50mM sodium chloride, 50mM potassium phosphate, 2mM DTT, 2mM EDTA; pH 7.4, pH5.5 or pH4.0, respectively). The rate of fluorescence emission, which is proportional to the proteolytic activity, was measured every 5 minutes at 37°C in a Victor-3 Plate Reader (Perkin Elmer).
One nmol of highly purified peptide was degraded in 15μg of whole cell extracts at 37°C in degradation buffer at pH7.4 or pH4.0 [37]. Aliquots were taken at 0, 10, 30, and 60 minutes, and the reaction was stopped with 2.5μL of 100% TFA. The remaining peptide at each time point was quantified by reversed-phase HPLC (RP-HPLC; Waters). 100% represents the amount of peptide detected at time point 0 calculated as the area under the peptide peak. A stability rate of each peptide was calculated by a nonlinear regression (one-phase exponential decay) of the degradation profile obtained over a 60-minute incubation. Peptides incubated in buffer without cell extracts were used as controls.

[3] = test system: immature DCs presenting to epitope-specific CTL clones; assay: ELISPOT cross-presentation assay with immature DCs; assay type: cell-based, Human; details: IFN-gamma ELISPOT, n≥5 donors; for change of B57-KF11 cross-presentation (CTL response) upon inhibitor pretreatment, increase: immature DCs pre-incubated 45 minutes with 10μM MG132, 5μM E64 or epoxomicin before p24 protein; for change of B57-ISW9 cross-presentation (CTL response) upon inhibitor pretreatment, increase: immature DCs pre-incubated 45 minutes with 10μM MG132 or 5μM E64 before p24 protein
Method: (§1) Human peripheral blood mononuclear cells (PBMCs) were isolated by Ficoll-Hypaque (Sigma-Aldrich) density centrifugation. Monocytes were enriched using CD14+ magnetic isolation kits (StemCell) and differentiated into DCs and Møs during a 6-day culture. DCs were cultured in AIM-V media with 1% human serum AB (Gemini Bio-Products) supplemented with 20ng/mL IL-4 and 10ng/mL GM-CSF (CellGenix). On days 2 and 4, fresh IL-4 and GM-CSF were added. Møs were cultured in ultra low attachment plates (Corning) in AIM-V media with 10% human serum AB. Where indicated, maturation of DCs and Møs was induced by TLR ligand stimulation with 2μg/mL LPS, 1μg/mL CL097, or 1μg/mL R848 (Invivogen) for 2 days. Epitope-specific CTL clones were maintained in the presence of 50U/mL IL-2, using 0.1μg/mL CD3-specific mAb 12F6, and irradiated feeder cells as stimulus for T cell proliferation.
(§2) Immature DCs and Møs were exposed to recombinant HIV-1 p24-protein, HIV-1 p55-protein or control protein (Protein Sciences Corporation, USA) for 1hr at 37°C. Where indicated, cells were pre-incubated for 45 minutes with inhibitors for proteasome (10μM MG132 (Enzo Life Sciences)) or cysteine proteases (5μM E64 (Sigma-Aldrich)). Cells pulsed with equivalent molar concentrations of the optimal epitopes were used as controls for antigen presentation and CTL clone specificity. DCs and Møs were thoroughly washed and cultured overnight with epitope-specific CTL clones at a 2:1 effector-to-target ratio in 96-well plates (Millipore) coated with anti-IFN-y mAb 1-D1K (Mabtech). ELISPOT plates were washed and developed as described previously.

[4] = test system: immature Møs presenting to epitope-specific CTL clones; assay: ELISPOT cross-presentation assay with immature Møs; assay type: cell-based, Human; details: IFN-gamma ELISPOT, n≥5 donors; for change of B57-ISW9 cross-presentation upon inhibitor pretreatment: immature Møs pre-incubated 45 minutes with 10μM MG132 or 5μM E64 before p24 protein; for change of B57-KF11 CTL responses upon inhibitor pretreatment, decrease / change of B57-TW10 CTL responses upon inhibitor pretreatment, decrease: immature Møs pre-incubated with 10μM MG132, epoxomicin or 5μM E64 before p24 protein
Method: as §1, §2

[5] = In vitro peptide degradation assay with mass spectrometry, immature DC extracts; assay type: in vitro ADME, Human; details: immature DC whole cell extracts, 120 minutes, pH7.4, pH5.5 and pH4.0, 37°C; LC-MS cleavage patterns; representative of two experiments

CC[C@H](C)[C@H](NC(=O)[C@H](CCC(N)=O)NC(=O)[C@H](CCC(=O)O)NC(=O)[C@H](CCC(N)=O)NC(=O)[C@H](CC(C)C)NC(=O)[C@H](CC(N)=O)NC(=O)[C@H](CO)NC(=O)[C@@H](N)[C@@H](C)O)C(=O)N[C@@H](C)C(=O)N[C@@H](Cc1c[nH]c2ccccc12)C(=O)O
cytosolic and lysosomal stability relative to B57-TW10, fold reduced ([1]; 1nmol peptide, 15μg immature DC or Mø extracts, pH7.4 and pH4.0 (both compartments), RP-HPLC stability rate, mean of three independent experiments): 7- to 8 fold

CC[C@H](C)[C@H](NC(=O)[C@H](C)N)C(=O)N[C@@H](Cc1ccccc1)C(=O)N[C@@H](CCC(N)=O)C(=O)N[C@@H](CO)C(=O)N[C@@H](CO)C(=O)N[C@@H](CCSC)C(=O)N[C@H](C(=O)N[C@@H](CCCCN)C(=O)O)[C@@H](C)O [A11-ATK9]
stability rate at pH4.0 relative to pH7.4 [2]: dramatically reduced

CC[C@H](C)[C@H](NC(=O)[C@@H](NC(=O)[C@H](CCC(=O)O)NC(=O)[C@@H]1CCCN1C(=O)[C@H](CO)NC(=O)[C@H](Cc1ccccc1)NC(=O)[C@H](C)NC(=O)[C@@H](N)CCCCN)C(C)C)C(=O)N1CCC[C@H]1C(=O)N[C@@H](CCSC)C(=O)N[C@@H](Cc1ccccc1)C(=O)O [B57-KF11]
half-life ([2]; pH 4, degradation buffer pH4.0, 37°C, read-out: half-life at pH4.0): 1.9 min
half-life ([2]; pH 7.4, degradation buffer pH7.4, 37°C, read-out: half-life at pH7.4): 20 min
stability rate at pH4.0 relative to pH7.4 [2]: dramatically reduced
fold faster degraded at pH4.0 than at pH7.4 ([2]; immature DC whole cell extract, 37°C, ratio of half-lives): 10 fold

CC(C)C[C@H](NC(=O)[C@H]1O[C@@H]1C(=O)O)C(=O)NCCCCN=C(N)N [E64]
change of B57-KF11 cross-presentation (CTL response) upon inhibitor pretreatment, increase [3]: no effect
change of B57-ISW9 cross-presentation (CTL response) upon inhibitor pretreatment, increase [3]: no effect
change of B57-ISW9 cross-presentation upon inhibitor pretreatment [4]: did not affect
change of B57-KF11 CTL responses upon inhibitor pretreatment, decrease [4]: did not affect
change of B57-TW10 CTL responses upon inhibitor pretreatment, decrease [4]: did not affect

CC[C@H](C)[C@H](NC(=O)[C@H](CCCCN)NC(=O)[C@H](CCC(=O)O)NC(=O)[C@H](Cc1c[nH]c2ccccc12)NC(=O)[C@@H](N)CCCNC(=N)N)C(=O)N[C@@H](CCCNC(=N)N)C(=O)N[C@@H](CC(C)C)C(=O)N[C@@H](CCCNC(=N)N)C(=O)N1CCC[C@H]1C(=O)NCC(=O)NCC(=O)N[C@@H](CCCCN)C(=O)N[C@@H](CCCCN)C(=O)N[C@@H](CCCCN)C(=O)N[C@@H](Cc1ccc(O)cc1)C(=O)N[C@@H](CCCCN)C(=O)N[C@@H](CC(C)C)C(=O)O [HIV-1 p17-derived peptide]
degradation of A03-RK9 within the p17-derived peptide [5]: minimal degradation

CC(C)C[C@@H](C=O)NC(=O)[C@H](CC(C)C)NC(=O)[C@H](CC(C)C)NC(=O)OCc1ccccc1 [MG132] (Cbz-Leu-Leu-Leu-aldehyde)
change of B57-KF11 cross-presentation (CTL response) upon inhibitor pretreatment, increase [3]: 4 fold
change of B57-TW10-specific CTL responses upon inhibitor pretreatment, decrease ([3]; immature DCs pre-incubated 45 minutes with 10μM MG132 before p24 protein): approximately 3 fold
change of B57-ISW9 cross-presentation (CTL response) upon inhibitor pretreatment, increase [3]: 43 fold
change of B57-ISW9 cross-presentation upon inhibitor pretreatment [4]: not affected
change of B57-KF11 CTL responses upon inhibitor pretreatment, decrease [4]: 2 fold
change of B57-TW10 CTL responses upon inhibitor pretreatment, decrease [4]: 3 fold

CC[C@H](C)[C@H](NC(=O)[C@H]([C@@H](C)CC)N(C)C(C)=O)C(=O)N[C@H](C(=O)N[C@@H](CC(C)C)C(=O)[C@@]1(C)CO1)[C@@H](C)O [epoxomicin]
change of B57-KF11 cross-presentation (CTL response) upon inhibitor pretreatment, increase [3]: 11 fold
change of B57-KF11 CTL responses upon inhibitor pretreatment, decrease [4]: 2 fold
change of B57-TW10 CTL responses upon inhibitor pretreatment, decrease [4]: 3 fold

FSPEVIPMF [B57-FF9]
stability rate at pH4.0 relative to pH7.4 [2]: dramatically reduced
stability rate compared with overlapping epitope B57-KF11 ([1]; extracts of DCs and Møs, RP-HPLC, three independent experiments): comparable

ISPRTLNAW [B57-ISW9]
stability rate at pH4.0 relative to pH7.4 [2]: dramatically reduced

Reference: publication PMC4364612
